Tests used:
[1] = target: T1, mPGES-1 (Homo sapiens (Human), UniProt O14684); experiment: A549 cell-based assay (PGE2 formation, IL-1β stimulated, 50% human serum); details: A549 cells, IL-1β 5 ng/ml, read-out: mPGES-1 inhibitory effect in the cell assay, IC50
In short: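 Human A549 cells (7000 cells/well) in F-12 medium with 50% human serum, with IL-1β stimulation. IC50 from 6-8 point titrations.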

[2] = target: T1, mPGES-1; experiment: mPGES-1 enzyme assay (HTRF detection of PGE2); assay type: biochemical; details: recombinant human mPGES-1 microsomes, PGH2 2 μM; read-out: mPGES-1 inhibitory effect in the enzyme assay, IC50
Procedure: Microsomes from Rosetta E. coli bacteria expressing recombinant human mPGES-1 can be derived as described below:
Inoculate 5 ml LB with Ampicilin (50 μg/ml) and Chloramphenicol (34 μg/ml) with bacteria from freeze culture. Incubate 8 h at 37° C. with 200 rpm. Thereafter, inoculate 500-1000 ml LB containing Amp and Chloro with the 5 ml on culture and grow to OD640 of 0.8-1.0. Chill the culture to +4° C. before induction. Induce the culture with IPTG at a final concentration of 400 μM. Express the protein at room temp 18-23° C. with 200 rpm shaking over night.
The following steps can be performed on the following day: • 1. Spin down the cells in 250 ml centrifuge flasks for 15 min at 7000 rpm (Beckmann Coulte Avanti J-E centrifuge) • 2. Dissolve the pellet from 250 ml culture in 12.5 ml homogenization buffer • 3. (15 mM Tris-HCL pH8, 1 mM EDTA pH8, […], 2.5 mM GSH, 1 Tablet Protease inhibitor per 50 ml buffer) • 4. […] Add 2.5 ml MgCl2 (100 mM) and DNase 12.5 μl (0.8 mg/ml) and incubate on ice for 30 min • 6. Spin down the bacteria debris and save the supernatant, 7000 rpm for 15 min • 7. Isolate the protein containing membranes in the supernatant by ultracentrifugation 120000×g for 2 hour at 4° C. (Sorvall T880 rotor). • 8. Discard the supernatant and dissolve the pellet in 20 mM Potassium phosphate buffer pH7.4 (KH2PO4 and K2HPO4) buffer by sonication (5×10 s, 30% of a 50 W sonifier) and aliquot the enzyme and store aliquots at −80° C.
Before each experiment is performed an aliquot of the enzyme is thawed and it can then be dissolved in 0.1 M Potassium phosphate buffer pH7.4 (KH2PO4 and K2HPO4) buffer containing 2.5 mM GSH.
The aim of this assay is to determine the affinity of a test compound for the mPGES-1 enzyme.
47 μl of recombinant human mPGES-1 (˜0.5 μg protein/well) containing microsomal suspension in a buffer containing GSH, (2.5 mmol/L L-Glutathione reduced, dissolved in 0.1 mol/L Phosphat Buffer pH 7.4) is dispensed in a 384-well plate and thereafter 1 μl of the test compound(s) is/are added and incubated for 25 minutes at room temperature. The enzyme reaction is started by the addition of 2 ul PGH2 (final conc. 2 μM) dissolved in water-free Diglyme. After 60 seconds the reaction is terminated by addition of a stop solution containing FeCl2 (10 μL 0.074 mol/l FeCl2). The samples are diluted between 1:25 in PBS (Phosphate Buffered Saline). 10 μl of the diluted samples are transferred to 384-well low volume plate. In order to quantify the amount of PGE2 that has been formed, a homogenous time resolved fluorescent (HTRF) detecting of PGE2 has been performed using a commercially available kit from Cisbio according to the manufactures recommendation. […] Briefly, the diluted samples are mixed with 5 μl PGE2-d2 conjungate and 5 μl anti-PGE2 cryptate conjungate. After an incubation period of the plates over night, the fluorescence is measured by the use of an appropriate microplate reader.
The quantification plate contains also wells with different concentrations of PGE2 as calibration curve for the calculation of the PGE2 concentrations from the HTRF ratio values.
From all mPGES enzyme assay the background is subtracted and the IC50 is calculated over a nonlinear regression with conventional software.

T1 sequence (O14684 whole entry): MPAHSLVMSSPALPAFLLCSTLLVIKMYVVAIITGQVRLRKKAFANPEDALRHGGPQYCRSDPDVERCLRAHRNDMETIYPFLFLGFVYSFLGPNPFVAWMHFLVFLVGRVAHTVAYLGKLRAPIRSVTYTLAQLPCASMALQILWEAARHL

`Cn1c(Nc2c(Cl)ccc(CNC(=O)C(C)(C)C)c2Cl)nc2cc(C(=O)Nc3nc4ccc(Cl)cc4s3)c(OCC(F)F)cc21` [Example 34] was tested, and the IC50 [1] was 1 nM and the IC50 [2] was 4 nM.
For `Cn1c(Nc2c(Cl)ccc(CNC(=O)C(C)(C)C)c2Cl)nc2cc(C(=O)NCc3ccccc3C(F)(F)F)c(OCC(F)F)cc21` [Example 35], the IC50 [1] was under 1 nM and the IC50 [2] was 4 nM.
With `Cn1c(Nc2c(Cl)ccc(CNC(=O)C(C)(C)C)c2Cl)nc2cc(C(=O)NCc3ccc(F)cc3C(F)(F)F)c(OCC(F)F)cc21` [Example 36] the IC50 [1] was under 1 nM and the IC50 [2] was 4 nM.
In the case of `Cn1c(Nc2c(Cl)ccc(CNC(=O)C(C)(C)C)c2Cl)nc2cc(C(=O)NC[C@@H]3CCCO3)c(OCC(F)F)cc21` [Example 37], the IC50 [1] is reported as 9 nM and the IC50 [2] is reported as 5 nM.
In the case of `Cn1c(Nc2c(Cl)ccc(CNC(=O)C(C)(C)C)c2Cl)nc2cc(C(=O)NCC(F)(F)C(F)(F)F)c(OCC(F)F)cc21` [Example 38], the IC50 [1] is reported as under 1 nM and the IC50 [2] is reported as 3 nM.
Work on `CC(NC(=O)c1cc2nc(Nc3c(Cl)ccc(CNC(=O)C(C)(C)C)c3Cl)n(C)c2cc1OCC(F)F)C(F)(F)F` (stereo not drawn) [Example 39] yielded an IC50 [1] of under 1 nM and an IC50 [2] of 4 nM.
In the case of `Cn1c(Nc2c(Cl)ccc(CNC(=O)C(C)(C)C)c2Cl)nc2cc(C(=O)Nc3cc(F)cc(Cl)c3)c(OCC(F)F)cc21` [Example 40], the IC50 [1] is reported as under 1 nM and the IC50 [2] is reported as 4 nM.
`Cn1c(Nc2c(Cl)ccc(CNC(=O)C(C)(C)C)c2Cl)nc2cc(C(=O)Nc3ncc(Cl)s3)c(OCC(F)F)cc21` [Example 41] showed an IC50 [1] of 1 nM and an IC50 [2] of 4 nM.
`Cn1c(Nc2c(Cl)ccc(CNC(=O)C(C)(C)C)c2Cl)nc2cc(C(=O)NCc3ncccc3C(F)(F)F)c(OCC(F)F)cc21` [Example 42] was tested, and the IC50 [1] was under 1 nM and the IC50 [2] was 4 nM.
Molecule `Cn1c(Nc2c(Cl)ccc(CNC(=O)C(C)(C)C)c2Cl)nc2cc(C(=O)NCC(F)F)c(OCC(F)F)cc21` [Example 43] has an IC50 [1] of 4 nM and an IC50 [2] of 4 nM.
`Cn1c(Nc2c(Cl)ccc(CNC(=O)C(C)(C)C)c2Cl)nc2cc(C(=O)NCC3CC3(Cl)Cl)c(OCC(F)F)cc21` (stereo not drawn) [Example 44] showed an IC50 [1] of 1 nM and an IC50 [2] of 3 nM.
`Cn1c(Nc2c(Cl)ccc(CNC(=O)C(C)(C)C)c2Cl)nc2cc(C(=O)Nc3ccc(Cl)c(F)c3)c(OCC(F)F)cc21` [Example 45] was tested, and the IC50 [1] was under 1 nM and the IC50 [2] was 4 nM.
For `Cn1c(Nc2c(Cl)ccc(CNC(=O)C(C)(C)C)c2Cl)nc2cc(C(=O)NCC3CCC3)c(OCC(F)F)cc21` [Example 46], the IC50 [1] was 1 nM and the IC50 [2] was 3 nM.
For `Cn1c(Nc2c(Cl)ccc(CNC(=O)C(C)(C)C)c2Cl)nc2cc(C(=O)Nc3ccc(C(F)(F)F)nc3)c(OCC(F)F)cc21` [Example 47], the IC50 [1] was under 1 nM and the IC50 [2] was 3 nM.
Work on `Cn1c(Nc2c(Cl)ccc(CNC(=O)C(C)(C)C)c2Cl)nc2cc(C(=O)NCCC(F)(F)F)c(OCC(F)F)cc21` [Example 48] yielded an IC50 [1] of 1 nM and an IC50 [2] of 3 nM.
`COCC1(CNC(=O)c2cc3nc(Nc4c(Cl)ccc(CNC(=O)C(C)(C)C)c4Cl)n(C)c3cc2OCC(F)F)CCCC1` [Example 49] gave an IC50 [1] of 1 nM and an IC50 [2] of 4 nM.
In the case of `COC(=O)c1ccc(NC(=O)c2cc3nc(Nc4c(Cl)ccc(CNC(=O)C(C)(C)C)c4Cl)n(C)c3cc2OCC(F)F)s1` [Example 50], the IC50 [1] is reported as 1 nM and the IC50 [2] is reported as 4 nM.
Work on `Cn1c(Nc2c(Cl)ccc(CNC(=O)C(C)(C)C)c2Cl)nc2cc(C(=O)NCCC3CC3)c(OCC(F)F)cc21` [Example 51] yielded an IC50 [1] of under 1 nM and an IC50 [2] of 3 nM.
`Cn1c(Nc2c(Cl)ccc(CNC(=O)C(C)(C)C)c2Cl)nc2cc(C(=O)NCC3CCCCC3)c(OCC(F)F)cc21` [Example 52] showed an IC50 [1] of under 1 nM and an IC50 [2] of 4 nM.
`Cn1c(Nc2c(Cl)ccc(CNC(=O)C(C)(C)C)c2Cl)nc2cc(C(=O)NCC3CC3)c(OCC(F)F)cc21` [Example 53] was tested, and the IC50 [1] was 1 nM and the IC50 [2] was 4 nM.
`Cc1ccc(Cl)cc1NC(=O)c1cc2nc(Nc3c(Cl)ccc(CNC(=O)C(C)(C)C)c3Cl)n(C)c2cc1OCC(F)F` [Example 54] gave an IC50 [1] of under 1 nM and an IC50 [2] of 3 nM.
`Cn1c(Nc2c(Cl)ccc(CNC(=O)C(C)(C)C)c2Cl)nc2cc(C(=O)NC3CC4CCC3C4)c(OCC(F)F)cc21` (stereo not drawn) [Example 55] showed an IC50 [1] of under 1 nM and an IC50 [2] of 4 nM.
With `CCNC(=O)c1cc2nc(Nc3c(Cl)ccc(CNC(=O)C(C)(C)C)c3Cl)n(C)c2cc1OCC(F)F` [Example 56] the IC50 [1] was 3 nM and the IC50 [2] was 4 nM.
`Cn1c(Nc2c(Cl)ccc(CNC(=O)C(C)(C)C)c2Cl)nc2cc(C(=O)NCCc3ccccc3)c(OCC(F)F)cc21` [Example 57] showed an IC50 [1] of under 1 nM and an IC50 [2] of 4 nM.
For `Cn1c(Nc2c(Cl)ccc(CNC(=O)C(C)(C)C)c2Cl)nc2cc(C(=O)NCC(F)(F)F)c(OCC(F)F)cc21` [Example 58], the IC50 [1] was 2 nM and the IC50 [2] was 3 nM.
With `Cn1c(Nc2c(Cl)ccc(CNC(=O)C(C)(C)C)c2Cl)nc2cc(C(=O)Nc3ccc4c(c3)CCC4)c(OCC(F)F)cc21` [Example 59] the IC50 [1] was under 1 nM and the IC50 [2] was 4 nM.
In the case of `Cn1c(Nc2c(Cl)ccc(CNC(=O)C(C)(C)C)c2Cl)nc2cc(C(=O)Nc3ccc(Cl)cc3Cl)c(OCC(F)F)cc21` [Example 60, N-(2,4-dichloro-phenyl)-2-{2,6-dichloro-3-[(2,2-dimethyl-propionylamino)-methyl]-phenylamino}-6-(2,2-difluoro-ethoxy)-1-methyl-1H-benzimidazole-5-carboxylic acid amide], the IC50 [1] is reported as under 1 nM and the IC50 [2] is reported as 3 nM.
Work on `Cn1c(Nc2c(Cl)ccc(CNC(=O)C(C)(C)C)c2Cl)nc2cc(C(=O)Nc3ccc(C(F)(F)F)cn3)c(OCC(F)F)cc21` [Example 61] yielded an IC50 [1] of under 1 nM and an IC50 [2] of 4 nM.
In the case of `Cc1cc(C#N)c(NC(=O)c2cc3nc(Nc4c(Cl)ccc(CNC(=O)C(C)(C)C)c4Cl)n(C)c3cc2OCC(F)F)s1` [Example 62], the IC50 [1] is reported as 1 nM and the IC50 [2] is reported as 2 nM.
Molecule `Cc1cc(Cl)cnc1NC(=O)c1cc2nc(Nc3c(Cl)ccc(CNC(=O)C(C)(C)C)c3Cl)n(C)c2cc1OCC(F)F` [Example 63] has an IC50 [1] of 1 nM and an IC50 [2] of 3 nM.
`Cn1c(Nc2c(Cl)ccc(CNC(=O)C(C)(C)C)c2Cl)nc2cc(C(=O)NC3CCC(F)(F)CC3)c(OCC(F)F)cc21` [Example 64] gave an IC50 [1] of under 1 nM and an IC50 [2] of 2 nM.
`Cn1c(Nc2c(Cl)ccc(CNC(=O)C(C)(C)C)c2Cl)nc2cc(C(=O)Nc3ccncc3Cl)c(OCC(F)F)cc21` [Example 65] was tested, and the IC50 [1] was 6 nM and the IC50 [2] was 4 nM.
`Cn1c(Nc2c(Cl)ccc(CNC(=O)C(C)(C)C)c2Cl)nc2cc(C(=O)Nc3cccc(C(F)(F)F)n3)c(OCC(F)F)cc21` [Example 66] was tested, and the IC50 [1] was under 1 nM and the IC50 [2] was 4 nM.
`Cn1c(Nc2c(Cl)ccc(CNC(=O)C(C)(C)C)c2Cl)nc2cc(C(=O)Nc3cc(C(F)(F)F)ccn3)c(OCC(F)F)cc21` [Example 67] was tested, and the IC50 [1] was 1 nM and the IC50 [2] was 2 nM.
`Cn1c(Nc2c(Cl)ccc(CNC(=O)C(C)(C)C)c2Cl)nc2cc(C(=O)N[C@H]3CC[C@H](C(F)F)CC3)c(OCC(F)F)cc21` [Example 68] showed an IC50 [1] of 1 nM and an IC50 [2] of 2 nM.
Work on `Cn1c(Nc2c(F)ccc(CNC(=O)C(C)(C)C)c2F)nc2cc(C(=O)Nc3cc(F)cc(Cl)c3)c(OCC(F)F)cc21` [Example 69] yielded an IC50 [1] of 3 nM and an IC50 [2] of 2 nM.
With `Cn1c(Nc2c(Cl)ccc(CNC(=O)C(C)(C)C)c2Cl)nc2cc(C(=O)Nc3nc(C(F)(F)F)cs3)c(F)cc21` [Example 70] the IC50 [1] was 16 nM and the IC50 [2] was 4 nM.
With `Cc1ccc(CNC(=O)C(C)(C)C)c(C)c1Nc1nc2cc(C(=O)Nc3ccc(F)c(Cl)c3)c(OCC(F)F)cc2n1C` [Example 71] the IC50 [1] was 16 nM and the IC50 [2] was 2 nM.
Work on `Cn1c(Nc2c(F)ccc(CNC(=O)C(C)(C)C)c2F)nc2cc(C(=O)Nc3cccc(F)c3)c(OCC(F)F)cc21` [Example 72] yielded an IC50 [1] of 9 nM and an IC50 [2] of 1 nM.
